Experimental data published in publication PMC10272180, “Ancient medicinal plant rosemary contains a highly efficacious and isoform-selective KCNQ potassium channel opener” (Communications Biology, 2023).

How the values were obtained:
[1] = target: KCNQ3* (KCNQ3-A315T) (Homo sapiens, UniProt O43525, A315T); assay: TEVC of KCNQ3* homomers expressed in Xenopus laevis oocytes; format: cell-based
[2] = target: T1, KCNQ3/5 (Homo sapiens, UniProt O43525+Q9NR82); assay: TEVC of KCNQ3/5 heteromers expressed in Xenopus laevis oocytes; format: cell-based
T1 construct: expressed in transfected cells; host or cells: Xenopus laevis oocytes co-injected with cRNAs
Excerpt: (§1) We generated cRNA transcripts encoding human KCNQ1, 2, 3, and 5 (wild-type and mutant) by in vitro transcription using the mMessage mMachine kit (Thermo Fisher Scientific, Waltham, MA, USA) according to manufacturer’s instructions, after vector linearization, from cDNA sub-cloned into expression vectors (pTLNx and pXOOM) incorporating Xenopus laevis β-globin 5’ and 3’ UTRs flanking the coding region to enhance translation and cRNA stability. Mutant KCNQ cDNAs were generated by Genscript (Piscataway, NJ, USA) and cRNAs made as above. We injected defolliculated stage V and VI Xenopus laevis oocytes (Xenoocyte, Dexter, MI, USA) with KCNQ cRNAs (2–10 ng) and incubated the oocytes at 16 °C in ND96 oocyte storage solution containing penicillin and streptomycin, with daily washing, for 2–4 days prior to two-electrode voltage-clamp (TEVC) recording.
(§2) We performed TEVC at room temperature using an OC-725C amplifier (Warner Instruments, Hamden, CT, USA) and pClamp10 software (Molecular Devices, Sunnyvale, CA, USA) 2–4 days after cRNA injection. We placed oocytes in a small-volume oocyte bath (Warner) and viewed them with a dissection microscope for cellular electrophysiology. We sourced chemicals from Sigma-Aldrich (St. Louis, MO, USA) and Combi-Blocks (San Diego, CA, USA). We studied effects of Salvia rosmarinus extracts and of compounds, solubilized directly in bath solution (in mM): 96 NaCl, 4 KCl, 1 MgCl2, 1 CaCl2, 10 HEPES (pH 7.6). We introduced extracts or compounds into the oocyte recording bath by gravity perfusion at a constant flow of 1 ml per minute for 3 min prior to recording. Pipettes were of 1-2 MΩ resistance when filled with 3 M KCl. […] We analyzed data using Clampfit (Molecular Devices) and Graphpad Prism software (GraphPad, San Diego, CA, USA), stating values as mean ± SEM. We plotted raw or normalized tail currents versus prepulse voltage and fitted with a single Boltzmann function:1 g=(A1−A2)/1+exp[V1/2−V/Vs]y+A2 where g is the normalized tail conductance, A1 is the initial value at -∞, A2 is the final value at +∞, V1/2 is the half-maximal voltage of activation and Vs the slope factor. We fitted activation and deactivation kinetics with single exponential functions.

[3] = target: KCNQ3*-R242A (Homo sapiens, UniProt O43525, A315T/R242A); assay: TEVC of mutant KCNQ3*-R242A in oocytes; format: cell-based
Excerpt: as §1
We performed TEVC at room temperature using an OC-725C amplifier (Warner Instruments, Hamden, CT, USA) and pClamp10 software (Molecular Devices, Sunnyvale, CA, USA) 2–4 days after cRNA injection. We placed oocytes in a small-volume oocyte bath (Warner) and viewed them with a dissection microscope for cellular electrophysiology. We sourced chemicals from Sigma-Aldrich (St. Louis, MO, USA) and Combi-Blocks (San Diego, CA, USA). We studied effects of Salvia rosmarinus extracts and of compounds, solubilized directly in bath solution (in mM): 96 NaCl, 4 KCl, 1 MgCl2, 1 CaCl2, 10 HEPES (pH 7.6). We introduced extracts or compounds into the oocyte recording bath by gravity perfusion at a constant flow of 1 ml per minute for 3 min prior to recording. Pipettes were of 1-2 MΩ resistance when filled with 3 M KCl. We recorded currents in response to voltage pulses between −120 mV and +40 mV at 10 mV intervals from a holding potential of −80 mV, to yield current-voltage relationships and examine activation kinetics. We analyzed data using Clampfit (Molecular Devices) and Graphpad Prism software (GraphPad, San Diego, CA, USA), stating values as mean ± SEM. We plotted raw or normalized tail currents versus prepulse voltage and fitted with a single Boltzmann function:1 g=(A1−A2)/1+exp[V1/2−V/Vs]y+A2 where g is the normalized tail conductance, A1 is the initial value at -∞, A2 is the final value at +∞, V1/2 is the half-maximal voltage of activation and Vs the slope factor. We fitted activation and deactivation kinetics with single exponential functions.

[4] = target: KCNQ3*-R243A (Homo sapiens, UniProt O43525, A315T/R243A); assay: TEVC of mutant KCNQ3*-R243A in oocytes; format: cell-based; conditions: 100 µM
Excerpt: as §1
(§3) We performed TEVC at room temperature using an OC-725C amplifier (Warner Instruments, Hamden, CT, USA) and pClamp10 software (Molecular Devices, Sunnyvale, CA, USA) 2–4 days after cRNA injection. […] We recorded currents in response to voltage pulses between −120 mV and +40 mV at 10 mV intervals from a holding potential of −80 mV, to yield current-voltage relationships and examine activation kinetics. We analyzed data using Clampfit (Molecular Devices) and Graphpad Prism software (GraphPad, San Diego, CA, USA), stating values as mean ± SEM. […]

[5] = target: KCNQ3*-L198F (Homo sapiens, UniProt O43525, A315T/L198F); assay: TEVC of mutant KCNQ3*-L198F in oocytes; format: cell-based
Excerpt: as §1, §2

[6] = target: T2, KCNQ3* coexpressed with Danio rerio VSP (DrVSP) (Homo sapiens, UniProt O43525, A315T); assay: TEVC of KCNQ3* coexpressed with DrVSP, PIP2 depletion at +120 mV; format: cell-based; conditions: 5 µM
T2 construct: expressed in transfected cells; host or cells: Xenopus laevis oocytes
Excerpt: Under baseline conditions, binding of the […], lipid-derived signaling molecule phosphatidylinositol 4,5-bisphosphate (PIP2) to KCNQ3 (and other KCNQ isoforms) is required for efficient coupling of the voltage sensor to pore opening and thus voltage-dependent gating[22],[23]. […] Another strategy for PIP2 reduction is to express a voltage-sensitive phosphatase (VSP) that reduces PIP2 levels upon membrane depolarization. […]
as §3

[7] = cited from earlier work
[8] = 5 µM, post 3 hrs. incubation 30 µM Wortmannin

KCNQ3* (KCNQ3-A315T), sequence (O43525 whole entry A315T): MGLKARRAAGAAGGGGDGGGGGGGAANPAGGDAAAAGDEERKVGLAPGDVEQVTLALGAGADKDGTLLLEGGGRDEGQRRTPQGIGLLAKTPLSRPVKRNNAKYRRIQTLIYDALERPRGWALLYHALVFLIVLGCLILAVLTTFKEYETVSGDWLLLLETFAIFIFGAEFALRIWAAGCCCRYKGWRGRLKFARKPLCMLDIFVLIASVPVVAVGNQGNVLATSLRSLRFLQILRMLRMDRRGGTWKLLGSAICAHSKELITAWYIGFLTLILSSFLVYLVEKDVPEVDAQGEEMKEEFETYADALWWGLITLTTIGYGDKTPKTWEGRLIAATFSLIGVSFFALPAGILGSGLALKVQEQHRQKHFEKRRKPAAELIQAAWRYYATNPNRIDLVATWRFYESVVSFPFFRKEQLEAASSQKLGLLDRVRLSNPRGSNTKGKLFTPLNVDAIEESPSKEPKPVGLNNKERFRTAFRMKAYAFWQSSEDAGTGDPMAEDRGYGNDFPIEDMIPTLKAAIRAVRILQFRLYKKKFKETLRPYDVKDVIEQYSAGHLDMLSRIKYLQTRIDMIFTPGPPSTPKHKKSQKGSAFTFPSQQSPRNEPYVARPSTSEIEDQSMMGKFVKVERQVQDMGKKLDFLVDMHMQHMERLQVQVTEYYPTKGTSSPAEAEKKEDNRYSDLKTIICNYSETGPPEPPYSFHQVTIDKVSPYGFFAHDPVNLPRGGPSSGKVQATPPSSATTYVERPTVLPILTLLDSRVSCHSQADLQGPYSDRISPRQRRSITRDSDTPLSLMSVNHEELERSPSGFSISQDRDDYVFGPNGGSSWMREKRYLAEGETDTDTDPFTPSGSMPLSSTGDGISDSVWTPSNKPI

## CC(C)c1cc2c(c(O)c1O)[C@@]1(C(=O)O)CCCC(C)(C)[C@@H]1CC2 [Carnosic acid, carnosic acid]
[1]; 0.1 µM
  V0.5 Normalized tail current: -55.21 ± 0.45 mV
[1]; 1 µM
  V0.5 Normalized tail current: -59.60 ± 0.47 mV
[1]; 3 µM
  V0.5 Normalized tail current: -63.92 ± 0.74 mV
[1]; 3 µM, at −120 mV
  slowing of deactivation rate: > fourfold
[1]; 3 µM, voltage-independent
  change of activation rate: doubled
[1]; 5 µM
  Slope: 7.61 ± 0.94 mV
  V0.5 Normalized tail current: -63.93 ± 1.08 mV
[1]; [8]
  Slope: 6.70 ± 0.56 mV
  V0.5 Normalized tail current: -46.82 ± 0.64 mV
[1]; 5 µM, −60 mV
  time to saturation of current potentiation upon wash-in: around 150 s
[1]; 10 µM
  V0.5 Normalized tail current: -73.28 ± 1.41 mV
[1]; 30 µM
  V0.5 Normalized tail current: -92.58 ± 2.21 mV
[1]; 100 µM
  Slope: 9.91 ± 0.62 mV
  V0.5 non-normalized tail current: -111.1 ± 5.75 mV
[1]; 100 µM (hesperidin 30 µM)
  effect on EM of unclamped oocytes: hyperpolarized
[1]; EC50 EM, EM of unclamped oocytes
  EC50: 1.19 ± 0.19 µM
[1]; EC50 Fold change -60 mV, current increase at −60 mV
  EC50: 5.43 ± 0.37 µM
[1]; EC50 V0.5 Activation, ΔV0.5act
  EC50: 18 ± 0.72 µM
[2]; 0.1 µM
  V0.5 Normalized tail current: -41.88 ± 0.50 mV
[2]; 1 µM
  V0.5 Normalized tail current: -47.59 ± 0.51 mV
[2]; 3 µM
  V0.5 Normalized tail current: -52.07 ± 0.47 mV
[2]; 10 µM
  V0.5 Normalized tail current: -56.02 ± 0.57 mV
[2]; 30 µM
  V0.5 Normalized tail current: -62.10 ± 0.87 mV
[2]; 100 µM
  V0.5 Normalized tail current: -68.83 ± 1.11 mV
  channel opening: powerful opener
[2]; EC50 EM
  EC50: 4.21 ± 0.16 µM
[2]; EC50 V0.5 Activation
  EC50: 4.53 ± 0.11 µM
[3]
  EC50: 8.31 ± 0.14 µM
[3]; 0.1 µM
  V0.5 Normalized tail current: -21.11 ± 0.68 mV
[3]; 1 µM
  V0.5 Normalized tail current: -24.52 ± 0.42 mV
[3]; 3 µM
  V0.5 Normalized tail current: -27.59 ± 0.38 mV
[3]; 10 µM
  V0.5 Normalized tail current: -30.42 ± 0.37 mV
[3]; 30 µM
  V0.5 Normalized tail current: -35.30 ± 0.41 mV
[3]; 100 µM
  Slope: 8.88 ± 0.59 mV
[3]; dose-response
  efficacy in terms of ΔV0.5act versus KCNQ3*: halved
[4]
  Slope: 9.48 ± 0.54 mV
  V0.5 Normalized tail current: -64.93 ± 0.61 mV
[5]; 0.1 µM
  V0.5 Normalized tail current: -58.22 ± 0.59 mV
[5]; 1 µM
  V0.5 Normalized tail current: -62.90 ± 0.79 mV
[5]; 3 µM
  V0.5 Normalized tail current: -73.56 ± 0.79 mV
[5]; 10 µM
  V0.5 Normalized tail current: -91.66 ± 1.99 mV
[5]; 30 µM
  V0.5 Normalized tail current: -116.6 ± 3.44 mV
[5]; EC50 EM
  EC50: 1.15 ± 0.12 µM
[5]; EC50 V0.5 Activation
  EC50: 6.28 ± 0.08 µM
[5]; dose-response
  carnosic acid efficacy and potency compared with KCNQ3*: very similarly
[6]
  effect on DrVSP-induced KCNQ3* current decay: reduced or prevented
[7]
  blood brain barrier crossing: crosses the blood brain barrier
